For assay [1], the system named is Puccinia recondita f. sp. tritici. As to the kind of experiment: Puccinia recondita f. sp. tritici / wheat / leaf disc curative (brown rust). The assay is classed as in vivo. The settings on record: for % reduction fungal growth: wheat. Here is the method:
(§1) Leaf disks or leaf segments of various plant species were cut from plants grown in the greenhouse. The cut leaf discs or segments were placed in multiwell plates (24-well format) onto water agar. The leaf disks were sprayed with a test solution before (preventative) or after (curative) inoculation. Compounds to be tested were prepared as water solutions (max. 10 mg/ml) which were diluted to the appropriate concentration with 0.025% Tween20 just before spraying. The inoculated leaf discs or segments were incubated under defined conditions (temperature, relative humidity, light, etc.) according to the respective test system. A single evaluation of disease level was carried out 3-9 days days after inoculation, depending on the pathosystem. Percent disease control relative to the untreated check leaf discs or segments was then calculated.
Puccinia recondita f. sp. tritici/Wheat/Leaf Disc Curative (Brown Rust)
Wheat leaf segments cv. Kanzler were placed on agar in multiwell plates (24-well format). The leaf segments were inoculated with a spore suspension of the fungus. Plates were stored in darkness at 19 °C and 75% rh. The formulated test compound diluted in water was applied 1 day after inoculation. The leaf segments were incubated at 19 °C and 75% rh under a light regime of 12 h light/12 h darkness in a climate cabinet and the activity of a compound was assessed as percent disease control compared to untreated when an appropriate level of disease damage appeared in untreated check leaf segments (6-8 days after application).

The test system is the same in assay [2]. Description: Puccinia recondita f. sp. tritici / wheat / leaf disc preventative (brown rust). The format is in vivo. The settings on record: for % reduction fungal growth: wheat, preventive. On the procedure: as §1
Puccinia recondita f. sp. tritici/Wheat/Leaf Disc Preventative (Brown Rust)
Wheat leaf segments cv. Kanzler were placed on agar in multiwell plates (24-well format) and sprayed with the formulated test compound diluted in water. The leaf disks were inoculated with a spore suspension of the fungus 1 day after application. The inoculated leaf segments were incubated at 19 °C and 75% rh under a light regime of 12 h light/12 h darkness in a climate cabinet and the activity of a compound was assessed as percent disease control compared to untreated leaf when an appropriate level of disease damage appeared in untreated check leaf segments (7-9 days after application).

The next assay relates to Magnaporthe grisea. The assay is classed as in vivo, Magnaporthe grisea (Pyricularia oryzae). The settings on record: rice, preventive.

Where two headings read alike, the source gives them in different places.

With `CC(=O)NC1C(OCC(OC2OC(CO)C(O)C(O)C2O)C2OC(OC3C(O)C(CO)OC(OC4(CO)OC(C(O)CO)C(O)C4OC4OC(CO)C(O)C(O)C4O)C3O)C(O)C(O)C2OC2OC(C(O)CO)C(O)C(O)C2OC2OCC(OC(N)=O)C(O)C2O)OC(CO)C(O)C1O` (centres unmarked) [compound of Formula (I)], the “curative activity to control Puccinia recondita” value in assay [1] is reported as “curative (infection of pathogen followed by application of compound) activity”. Also, the “% reduction fungal growth” value in assay [1] (0.80 ppm) worked out at 0%; in assay [1] (2.50 ppm), 0%; in assay [1] (7.40 ppm), 0%; in assay [1] (22.00 ppm), 90%; in assay [1] (67.00 ppm) it was 100%; in assay [1] (200.00 ppm), 100%. Moreover, the “% reduction fungal growth” value in assay [2] (0.80 ppm) was found to be 0%; in assay [2] (2.50 ppm), 0%; in assay [2] (7.40 ppm), 0%; in assay [2] (22.00 ppm), 0%; in assay [2] (67.00 ppm), 45%; in assay [2] (200.00 ppm), 95%. For the same compound, the “% reduction fungal growth” value is reported as 0% with Magnaporthe grisea (0.80 ppm); 0% in the assay on Magnaporthe grisea (2.50 ppm); 0% with Magnaporthe grisea (7.40 ppm); 60% in the assay on Magnaporthe grisea (22.00 ppm); 70% in the assay on Magnaporthe grisea (67.00 ppm); 100% in the assay on Magnaporthe grisea (200.00 ppm). Also, the “preventive activity to control Puccinia recondita” value in assay [2] is on record as “preventive (application of compound followed by infection with pathogen)”.

Values taken from patent publication US20260344665A1, “FUNGICIDAL COMPOUND” (priority 2022, published 2026).
